Values quoted from earlier work in US12336975B2, “Composition and methods for treatment or prophylaxis of coronavirus and cancers” ([…], priority 2020, dated 2025).

System: COVID-19
Conditions: preventive and treatment approach for COVID-19

CCN(CCO)CCCC(C)Nc1ccnc2cc(Cl)ccc12 (centres unmarked) [hydroxychloroquine]
efficacy against COVID-19: no effective results | reported side effect rate: 40.1%
